From patent US12116344B2, “Crystalline forms of a pharmaceutical compound” (Azafaros B.V., priority 2020, dated 2024)

Columns and labels:
[1] = system: NPC (−/−) mice; assay: Clinical signs and tremor score in the Niemann-Pick type C mouse model; format: in vivo; conditions: for Overall clinical signs: scores PND 56-70
Description: Out of the 38 mice to be included in this study, there were 30 NPC (−/−) knock-out (KO) mice, 4 NPC (+/−) heterozygous mice and 4 NPC (+/+) wild-type (WT, Balb/c) mice. NPC1(−/−) mice have a premature truncation of the protein deleting 11 out of 13 transmembrane domains leaving the first two transmembrane domains intact. NPC1(−/−) mice homozygous for the recessive NIH allele of the Niemann Pick type C1 gene (Npc1 ml N) show a dual deficiency of sphingomyelinase and glucocerebrosidase activity (JAX #003092). Animals were bred on a BALB/c OlaHsd background.
(§1) 24 NPC1 (−/−) mice (groups D to I) were treated per oral gavage (10 mL/kg) with AZ-3102-00 from post-natal day 11 (P11) to post-natal-day 70 (P70). Dosing will start at 1.5 mg/kg from P11 to P25, followed by 3 mg/kg from P26 to P70. Control mice included 6 NPC1 (−/−) and 4 NPC (+/−) mice treated with vehicle and 4 NPC (+/+) mice received AZ-3102-00 (groups A to C).
Definitions of Clinical Scores and Humane Endpoints Clinical Signs were monitored on a daily basis starting at P45 until the end of the study (according to the template shown in FIG. 18). The parameters “weight loss”, “general health”, “clinical findings” and “line specific findings” were recorded and rated according to a score scale. The sum of this score was used for evaluation.
Pink (=light grey) bars represent the appearance and duration of a high level of tremor (sore of 5); whereas the green (=dark grey) bars represent the appearance and duration of a slight or moderate tremor. […] Possible tremor scores: 0: no tremor1: Slight incoordination, slight-moderate tremor; 5: High level of Tremor, uncoordinated movement; 10: Reduced righting reflex (no animal achieved this score).

[2] = Stability of the test item in vehicle (acidified water); format: physicochemical; conditions: for Stability in the vehicle: 0.01 to 2 mg/mL
[3] = system: glucosylceramide C16:0 and C18:0; assay: Glucosylceramide levels in brain homogenate of NPC mice (HPLC-MS/MS); format: in vivo
Description: as §1
Brain tissues were homogenized in a solution of ultrapure water:methanol (1:1) with 0.1% formic acid (4 mL for each gram of tissue) using a FastPrep 24™ Microtube homogenizer. Tissues homogenates were then mixed for protein precipitation with a solution of acetonitrile:ultrapure water:methanol (90:5:5) containing 500 nM of GlcCer C17:0 and 0.1% formic acid. After a 5-min incubation at room temperature, the samples were centrifuged for 5 min (13000 rpm, 20° C.) and 50 μL of the supernatants were transferred into a siliconized MTP 96-well plate.
Concentrations of glucosylceramide C16:0 (GlcCer C16:0), glucosylceramide C18:0 (GlcCer C18:0), and glucosylceramide C24:1 (GlcCer C24:1) brain, samples were quantified by HPLC-MS/MS detection in the multiple-reaction-monitoring mode (MRM). Supernatants were analysed by HPLC-MS/MS while using a HALO HILIC column (150*4.6 mm, 2.7 μm) from Advanced Materials Technology for distinguishing between the galactosyl- and -glucosylceramide isomers. […] Analysis of GlcCer C16:0 and GlcCer C18:0 was performed using a gradient with mobile phase A: 5 mM Ammonium Acetate in 94.5% acetonitrile 2.5% Methanol, 2.5% ultrapure water and 0.5% formic acid and mobile phase B: ultrapure Water and 0.1% formic acid. The LLOQ in brain samples for GlcCer 16:0, GlcCer 18:0 and GlcCer 24:1 was […] tissue, respectively.

[4] = whole brain homogenates, daily oral dosing PND 11-70

Stability in the vehicle ([2]; freezer (≤−15° C.)): at least 3 weeks
Stability in the vehicle ([2]; refrigerated (2-8° C.)): at least 8 days
Stability in the vehicle ([2]; room temperature protected from light): at least 24 hours
Stability in vehicle ([2]; under nitrogen frozen in a freezer (≤−15° C.)): for at least 21 days (3 weeks).
Compound: OC[C@H]1[C@@H](O)[C@H](O)[C@@H](O)CN1CCCCCOCc1ccc(-c2ccccc2)c(F)c1 [AZ-3102]
Mice with a high level of tremor (score of 5) ([1]; NPC (−/−) mice treated P11-P70, observed PND 56-70, vehicle group 4 out of 5): 1 out of 24
Initiation, duration and strength of tremor ([1]; NPC (−/−) mice, treated versus vehicle, PND 56-70): diminished
Overall clinical signs ([1]; NPC (−/−) mice, treated versus vehicle): improved clinical signs
Overall clinical signs ([1]; NPC (−/−) mice, treated versus vehicle, listed as Form 3): improve the clinical signs
Stability in vehicle ([2]; under nitrogen at room temperature protected from light): light for at least 24 h, stored under nitrogen
Levels of glucosylceramide C16:0 and C18:0 in the brain ([3]; repeat oral administration PND 11-70): increased levels
Increase of GlcCer 16:0 compared to vehicle treated animals [3, 4]: greater than 2 fold
Increase of GlcCer 18:0 compared to vehicle treated animals [3, 4]: approximately 9 fold
